Experimental data from PMC12606464, “Investigating NFE2L1 activators for targeted protein aggregate clearance: a follow-up study” (RSC Medicinal Chemistry, 2025).

Tests used:
NFE2L1 pathway = assay: 3×PSMA4-ARE-LUC dual luciferase reporter assay in HEK293 cells; type: cell-based, human; details: Homo sapiens; 5 μM, 16 h, HEK293, luminescence relative to DMSO-treated cells; read-out: NFE2L1 activation [5 μM]
From the text: In our previous work,[43] we developed a library of NFE2L1 stimulators using a cell-based luciferase reporter assay. This system was based on three tandem copies of the antioxidant response element (ARE) derived from the NFE2L1 target gene proteasome subunit alpha type-4 (3xPSMA4, PSMA4-ARE-LUC). It was designed to detect the proteasome “bounce-back” response induced by proteasome inhibitors such as MG132 or bortezomib.[22,43,45,46] The reporter assay was adapted to a 384-well format and used to evaluate a new set of RUN compounds designed around the structural framework of the RUN-47 activator. We focused on identifying compounds that increased the 3×PSMA4-ARE-LUC signal (Fig. 1A), while simultaneously assessing cytotoxicity (see the SI, Fig. S2). […] In contrast, thiourea- and urea-containing derivatives generally produced only weak to intermediate responses, rarely exceeding a fold change of 7.
Fig. 1 (A) Targeted library screening of RUN compounds using the 3×PSMA4-ARE-LUC dual reporter assay in HEK293 cells. Cells were exposed to RUN compounds (5 μM) for 16 hours, and luciferase activity was measured. Data are presented as the mean ± SD from three independent experiments (n = 3). Results are shown as a fold change in luminescence relative to DMSO-treated cells. Selected hit compounds are highlighted in distinct colours. (B) RUN-89 specifically activates the NFE2L1 pathway. The DDI2 knockout (KO) and parental (WT) HCT116 cells were transfected with the 3×PSMA4-ARE-LUC reporter and treated with 0.5 μM bortezomib (BTZ) and 5 μM RUN-89 for 16 hours. Data are presented as the Geomean ± GeoSD of three independent experiments (n = 3). Statistical analysis was performed on log2-transformed values using two-way repeated-measures ANOVA followed by Šídak's multiple comparison test. (C) RUN-89 selectively triggers downstream signaling events associated with NFE2L1 gene expression. HEK293 cells were transfected with lipid nanoparticles (LNPs) carrying siRNAs targeting NFE2L1 or NFE2L2. LNPs formulated with non-targeting siRNA served as a negative control. Following 24 hours of incubation, cells were treated with 7.5 μM RUN-89 or DMSO (vehicle) for an additional 16 hours. Expression of the proteasomal subunit gene PSMC4 was then quantified by RT-qPCR. Data are shown as the Geomean ± GeoSD from three independent biological replicates (n = 3). Log2-transformed data were analyzed using two-way repeated-measures ANOVA with the Geisser–Greenhouse correction, followed by Tukey's multiple comparison test with individual variances computed for each comparison. Additional results for NFE2L1, NFE2L2, PSMB7, and PSMD12 are presented in SI Fig. S10.
Figure S1: Concentration–response of luciferase cell-based assay (PSMA4-ARE-luc2P reporter) on treatment with RUN-81, RUN-89, and RUN-94. Concentration is plotted on the X-axis. Dose–response relationships were analyzed using a four-parameter logistic curve (4PL), or a bell-shaped dose-response curve, both with weighting 1/Y^2. Dotted lines represent 95% confidence bands. Calculated EC₅₀ values, curve parameters, and asymmetrical confidence intervals are summarized in the accompanying table . Data are presented as mean ± SD from four independent experiments (n=4).
(§1) 2 Biology Experimental Procedures
(§2) Safety statement: No unexpected or unusually high safety hazards were encountered. […]
Most of the cell lines were cultured in Dulbecco's Modified Eagle Medium (DMEM) enriched with 10% fetal bovine serum (FBS) and 2 mM L-glutamine, under standard conditions of 37 °C with 5% CO₂. DNA transfection was performed with Lipofectamine 2000, following the manufacturer's instructions. Transgenic cells were then selected with either G418 (400 µg/mL) or hygromycin B (450 µg/mL), based on the selection marker encoded by the plasmid used. Cell viability was evaluated using the […]

HEK293 cells = assay: alamarBlue cytotoxicity assessment in HEK293 cells; type: cell-based, human; details: 16 h
Procedure: Figure S2: Concentration-dependent cytotoxicity assessment of RUN compounds.
HEK293 cells were treated for 16 hours with increasing concentrations of RUN compounds (1.25 µM; 2.5 µM; 5; 7.5 and 10 µM) or DMSO (negative control). Cell viability was determined using the alamarBlue assay following the protocol of Riss.(1) Data are presented as means ± SD from three independent experiments (n = 3). Statistical analysis was done using repeated measures one-way ANOVA with Geisser–Greenhouse correction, followed by Dunnett’s multiple comparisons test. *p<0.05. Detailed results of the analysis are shown in […]
(1 picture or pasted object on this page, not shown here)
as §1, §2
Cell lines were sourced from the ATCC (USA) and/or ECACC (UK), namely HCT116 (human colorectal carcinoma), ATCC CCL-247 (RRID:CVCL_0291), HEK-293 (human embryonic kidney), ATCC CRL-1573 (RRID:CVCL_0045), SH-SY5Y (human neuroblastoma), ATCC CRL-2266 (RRID:CVCL_0019). The characteristics of DDI2 knockout cells derived from HCT116 cells have been described previously (Sedlacek et al., 2025). All cell lines were tested for mycoplasma contamination. Most of the cell lines were cultured in Dulbecco's Modified Eagle Medium (DMEM) enriched with 10% fetal bovine serum (FBS) and 2 mM L-glutamine, under standard conditions of 37 °C with 5% CO₂. DNA transfection was performed with Lipofectamine 2000, following the manufacturer's instructions. Transgenic cells were then selected with either G418 (400 µg/mL) or hygromycin B (450 µg/mL), based on the selection marker encoded by the plasmid used. […]

[1] = HEK293, alamarBlue, concentration not given

Structure (SMILES) | fold induction at 5 µM (NFE2L1 pathway) | Tox [% of ctrl.] (HEK293 cells; [1]) | Tox [% of ctrl.] (HEK293 cells; human)
COc1ccc(/C=C2\CN(C(=S)Nc3cccnc3)C/C(=C\c3ccc(OC)c(OC)c3)C2=O)cc1OC [RUN-73] | 1.9 | 84% of ctrl. | –
CCOC(=O)CNC(=O)N1C/C(=C\c2ccc(OC)c(OC)c2)C(=O)/C(=C/c2ccc(OC)c(OC)c2)C1 [RUN-74] | 7.1 | 81% of ctrl. | –
CCOC(=O)CCNC(=O)N1C/C(=C\c2ccc(OC)c(OC)c2)C(=O)/C(=C/c2ccc(OC)c(OC)c2)C1 [RUN-75] | 6.8 | 82% of ctrl. | –
COc1cccc(NC(=O)N2C/C(=C\c3ccc(OC)c(OC)c3)C(=O)/C(=C/c3ccc(OC)c(OC)c3)C2)c1 [RUN-76] | 6.8 | 88% of ctrl. | –
COc1ccc(/C=C2\CN(C(=S)NCCN3CCOCC3)C/C(=C\c3ccc(OC)c(OC)c3)C2=O)cc1OC [RUN-77] | 2.5 | 84% of ctrl. | –
COc1ccc(/C=C2/C(=O)/C(=C/c3ccc(OC)c(OC)c3)C3CCC2N3)cc1OC [RUN-78] | 1.4 | – | 89% of ctrl.
COc1ccc(/C=C2/C(=O)/C(=C/c3ccc(OC)c(OC)c3)C3CCC2N3CCN2CCOCC2)cc1OC [RUN-79] | 0.9 | – | 104% of ctrl.
COc1ccc(/C=C2/C(=O)/C(=C/c3ccc(OC)c(OC)c3)C3CCC2N3Cc2ccc(C#N)cc2)cc1OC [RUN-80] | 2 | – | 98% of ctrl.
COCCOCCOCC(=O)N1C/C(=C\c2ccc(OC)c(OC)c2)C(=O)/C(=C/c2ccc(OC)c(OC)c2)C1 [RUN-82] | 3.2 | 85% of ctrl. | –
COc1ccc(/C=C2\CN(C(=O)C34CCN(CC3)CC4)C/C(=C\c3ccc(OC)c(OC)c3)C2=O)cc1OC [RUN-83] | 1.5 | – | 87% of ctrl.
COc1ccc(/C=C2\CN(C(=O)CN)C/C(=C\c3ccc(OC)c(OC)c3)C2=O)cc1OC [RUN-85] | 2.7 | – | –
COc1ccc(/C=C2\CC(NC(=O)CN(C)C)C/C(=C\c3ccc(OC)c(OC)c3)C2=O)cc1OC.O=C(O)C(F)(F)F (centres unmarked) [RUN-86] | 2 | 96% of ctrl. | –
COc1ccc(/C=C2\CC(NC(=O)C34CCN(CC3)CC4)C/C(=C\c3ccc(OC)c(OC)c3)C2=O)cc1OC (centres unmarked) [RUN-87] | 1 | – | 101% of ctrl.
COCCOCCOCC(=O)NC1C/C(=C\c2ccc(OC)c(OC)c2)C(=O)/C(=C/c2ccc(OC)c(OC)c2)C1 (centres unmarked) [RUN-88] | 3.9 | 86% of ctrl. | –
COc1ccc(/C=C2\CC(NC(=O)CN3CCN(C)CC3)C/C(=C\c3ccc(OC)c(OC)c3)C2=O)cc1OC (centres unmarked) [RUN-90] | 2.8 | 87% of ctrl. | –
COc1ccc(/C=C2\CC(NC(=O)CCCN(C)C)C/C(=C\c3ccc(OC)c(OC)c3)C2=O)cc1OC (centres unmarked) [RUN-91] | 1.6 | 95% of ctrl. | –
COc1ccc(/C=C2\CC(NC(=O)CN)C/C(=C\c3ccc(OC)c(OC)c3)C2=O)cc1OC.O=C(O)C(F)(F)F (centres unmarked) [RUN-92] | 1.6 | 90% of ctrl. | –
COc1ccc(/C=C2\CC(NC(=O)c3ncccc3C)C/C(=C\c3ccc(OC)c(OC)c3)C2=O)cc1OC (centres unmarked) [RUN-93] | 11.9 | 75% of ctrl. | –
COc1ccc(/C=C2\CC(NC(=O)Cc3c[nH]cn3)C/C(=C\c3ccc(OC)c(OC)c3)C2=O)cc1OC (centres unmarked) [RUN-95] | 2 | 96% of ctrl. | –
COc1ccc(/C=C2\CC(NC(=O)[C@@H]3CCCN3)C/C(=C\c3ccc(OC)c(OC)c3)C2=O)cc1OC.O=C(O)C(F)(F)F (some centres unmarked) [RUN-96] | 2.2 | 93% of ctrl. | –
COc1ccc(/C=C2\CC(NC(=O)C3CCC(=O)N3)C/C(=C\c3ccc(OC)c(OC)c3)C2=O)cc1OC (centres unmarked) [RUN-97] | 1.6 | 99% of ctrl. | –
